{"source": "patent US9725412B2", "about": "“Polymorphic forms of perindopril (L)-arginine and process for the preparation thereof” (Mylan Laboratories Limited, priority 2008, dated 2017)", "key": {"[1]": {"assay": "Transformation kinetics: solvent-mediated polymorph transformation (slurry in solvents, PXRD)", "assay_type": "physicochemical", "conditions": "for Result (polymorphic form by PXRD after slurry): stirred 12 hours; for Form conversion: stirred in toluene or acetonitrile for more than 15 hrs at room temperature; for Form conversion or dissociation: slurry in heptane", "experimental": "Solvent-mediated polymorph transformations are an effective method to measure the physical stability for both metastable and thermodynamically stable polymorphs. This study is carried out by slurring 1 g of Form γ, amorphous and literature Form α of Perindopril (L)-Arginine salt in different solvents at 25 to 30° C. for several hours. The solid samples are then characterized by PXRD (example 10, Table 6).\n1 g of Perindopril (L)-Arginine salt is suspended in appropriate solvents at different temperature and stirred for 12 hours to afford form γ of Perindopril (L)-Arginine."}, "[2]": {"assay": "Physical stability on drying and at humidity (RH >90%), by PXRD and Karl-Fisher", "assay_type": "physicochemical", "experimental": "The physical stability of the amorphous form, Form γ and literature Form α of Perindopril (L)-Arginine was determined by storing approximately 3.0 g of the sample a) at 50° C., b) at 70° C., c) at 100° C. and d) at 90% Relative Humidity (RH). […]"}, "[3]": {"assay": "Solid state stability at accelerated stress conditions (40° C./75% relative humidity)", "assay_type": "physicochemical", "conditions": "40° C./75% RH", "experimental": "The present invention is to provide Perindopril (L)-Arginine (γ) form having the degree of crystallinity under 60%, which has enhanced stability to heat and humidity. According to the present invention, the obtained Perindopril (L)-Arginine (γ) form is subjected to accelerated stability at 40° C. and relative humidity (RH) 75%.\nThe samples were tested by PXRD, Karl-Fisher titrator and HPLC for final purity and degradation products."}, "[4]": {"assay": "Hygroscopic studies at different relative humidities", "assay_type": "physicochemical", "conditions": "stored in different relative humidities for 1 to 3 months"}, "[5]": {"conditions": "tablets, temperate-climate countries; cited from earlier work"}}, "data": [{"smiles": "CCC[C@H](N[C@@H](C)C(=O)N1[C@H](C(=O)O)C[C@@H]2CCCC[C@@H]21)C(=O)OCC.N=C(N)NCCC[C@H](N)C(=O)O", "note": "[Amorphous, Perindopril (L)-Arginine]", "values": [{"measurement": "Result (polymorphic form by PXRD after slurry)", "setting": "[1]; ACN, volume 10, 25-30 ° C.", "result": "Form γ"}, {"measurement": "Form conversion", "setting": "[1]", "result": "converted to form γ"}, {"measurement": "Results (polymorphic form by PXRD)", "setting": "[2]; Drying at 25° C., 3 hrs", "result": "Form γ"}, {"measurement": "Results (polymorphic form by PXRD)", "setting": "[2]; Humidity (RH >90%), 3 hrs", "result": "Form γ"}, {"measurement": "Results (polymorphic form by PXRD)", "setting": "[2]; Humidity (RH >90%), 3 hrs, listed as amorphous Perindopril Arginine salt", "result": "polymorphic form γ"}, {"measurement": "Change in form", "setting": "[2]; in humidity", "result": "converted to Form γ"}]}, {"smiles": "CCC[C@H](N[C@@H](C)C(=O)N1[C@H](C(=O)O)C[C@@H]2CCCC[C@@H]21)C(=O)OCC.N=C(N)NCCC[C@H](N)C(=O)O", "note": "[Form α, Perindopril (L)-Arginine]", "values": [{"measurement": "Result (polymorphic form by PXRD after slurry)", "setting": "[1]; ACN, volume 5, 25-30 ° C.", "result": "Form γ"}, {"measurement": "Result (polymorphic form by PXRD after slurry)", "setting": "[1]; ACN, volume 5, 70-80 ° C.", "result": "Form γ"}, {"measurement": "Result (polymorphic form by PXRD after slurry)", "setting": "[1]; Toluene, volume 5, 25-30 ° C.", "result": "Form γ"}, {"measurement": "Result (polymorphic form by PXRD after slurry)", "setting": "[1]; n-heptane, volume 5, 25-30 ° C.", "result": "Form α"}, {"measurement": "Form conversion or dissociation", "setting": "[1]", "result": "No discernible form conversion or dissociation"}, {"measurement": "Form conversion", "setting": "[1]", "result": "converted to form γ"}, {"measurement": "Results (polymorphic form by PXRD)", "setting": "[2]; Drying at 70° C., 3 days", "result": "Form α"}, {"measurement": "Results (polymorphic form by PXRD)", "setting": "[2]; Drying at 100° C., 7 days", "result": "Form α"}, {"measurement": "Results (polymorphic form by PXRD)", "setting": "[2]; Humidity (RH >90%), 15 hrs", "result": "Form γ"}, {"measurement": "Change in form", "setting": "[2]; in humidity", "result": "converted to Form γ"}]}, {"smiles": "CCC[C@H](N[C@@H](C)C(=O)N1[C@H](C(=O)O)C[C@@H]2CCCC[C@@H]21)C(=O)OCC.N=C(N)NCCC[C@H](N)C(=O)O", "note": "[Form γ, Perindopril (L)-Arginine]", "values": [{"measurement": "PXRD", "setting": "[3]; After 1 month", "result": "Same as initial"}, {"measurement": "Purity (%) (HPLC)", "setting": "[3]; After 1 month", "result": 99.2, "unit": "%"}, {"measurement": "m/c (%) (moisture content, Karl-Fisher)", "setting": "[3]; After 1 month", "result": 4.4, "unit": "%"}, {"measurement": "PXRD", "setting": "[3]; After 2 months", "result": "Same as initial"}, {"measurement": "Purity (%) (HPLC)", "setting": "[3]; After 2 months", "result": 99.1, "unit": "%"}, {"measurement": "m/c (%) (moisture content, Karl-Fisher)", "setting": "[3]; After 2 months", "result": 5.0, "unit": "%"}, {"measurement": "PXRD", "setting": "[3]; After 15 days", "result": "Same as initial"}, {"measurement": "Purity (%) (HPLC)", "setting": "[3]; After 15 days", "result": 99.2, "unit": "%"}, {"measurement": "m/c (%) (moisture content, Karl-Fisher)", "setting": "[3]; After 15 days", "result": 4.2, "unit": "%"}, {"measurement": "PXRD", "setting": "[3]; Initial", "result": "Form γ"}, {"measurement": "Purity (%) (HPLC)", "setting": "[3]; Initial", "result": 99.1, "unit": "%"}, {"measurement": "m/c (%) (moisture content, Karl-Fisher)", "setting": "[3]; Initial", "result": 3.8, "unit": "%"}, {"measurement": "Chemical and physical stability", "setting": "[3]; accelerated stability", "result": "chemically and physically very stable"}, {"measurement": "Degradation in HPLC", "setting": "[3]; accelerated stability", "result": "no degradation"}, {"measurement": "Increase in moisture content", "setting": "[3]; accelerated stability", "result": "no substantial increase"}, {"measurement": "Increase in moisture content", "setting": "[4]", "result": "no substantial increase in moisture content"}, {"measurement": "Result (polymorphic form by PXRD after slurry)", "setting": "[1]; ACN, volume 10, 80 ° C.", "result": "Form v"}, {"measurement": "Result (polymorphic form by PXRD after slurry)", "setting": "[1]; Toluene, volume 10, 110 ° C.", "result": "Form γ"}, {"measurement": "Relative thermodynamic stability", "setting": "[1]; conclusion from stability and slurry observations", "result": "thermodynamically more stable than Perindopril (L)-Arginine amorphous and form α"}, {"measurement": "Result (polymorphic form by PXRD after slurry)", "setting": "[1]; n-heptane, volume 10, 60-80 ° C.", "result": "Form γ"}, {"measurement": "Form conversion or dissociation", "setting": "[1]", "result": "No discernible form conversion or dissociation"}, {"measurement": "Results (polymorphic form by PXRD)", "setting": "[2]; Drying at 70° C., 3 days", "result": "Form γ"}, {"measurement": "Results (polymorphic form by PXRD)", "setting": "[2]; Drying at 100° C., 7 days", "result": "Form γ"}, {"measurement": "Results (polymorphic form by PXRD)", "setting": "[2]; Humidity (RH >90%), 15 hrs", "result": "Form γ"}, {"measurement": "Change in form", "setting": "[2]; both drying and humid conditions", "result": "no change in form"}]}, {"smiles": "CC(C)(C)N.CCC[C@H](N[C@@H](C)C(=O)N1[C@H](C(=O)O)C[C@@H]2CCCC[C@@H]21)C(=O)OCC", "note": "[Perindopril tert-butylamine salt]", "values": [{"measurement": "Shelf-life", "setting": "[5]", "result": "≤ 2", "unit": "years"}]}]}
